From US20220073981A1 (KOREA INSTITUTE OF SCIENCE AND TECHNOLOGY, priority 2020, published 2022) come the findings set out here.

In the data set the test system is BEAS-2B cell line. The experiment in a line: Cytotoxicity test (MTT assay). As to conditions: 48 hours exposure. The class given is cell-based, human. The protocol: An MTT assay was performed using the BEAS-2B cell line according to the method of Mossman et al. (J. Immunol. Methods, 65, 55-63, 1983).

Regarding `CCC(C)=O` [2-butanone], the “concentration (IC5) showing the 95% survival rate” value came out at 22270 µM and the “concentration showing the 80% survival rate” value worked out at 106210 µM.
